Where no end group is shown, it is not given here. [ ]: non-standard residue; d: D form.
Tests used:
Assay type in all cases: cell-based
[1] = test system: human subcutaneoous mature adipocytes; test: Lipolytic activity: glycerol release in human adipocytes (Lipolysis Assay kit); conditions: human subcutaneous mature adipocytes
[2] = test system: differentiated human subcutaneous adipocytes; test: Time course lipolytic activity: glycerol release at 120' and 240'; conditions: for Lipolytic activity measured as glycerol release: 10 ug/ml, human subcutaneous adipocytes
Procedure: At the end of the experiment, supernatants were collected and glycerol content was measured using a Lipolysis Assay kit from Tebu-bio (LIP-1—NC) following the manufacturer's instructions.

[3] = test system: 3T3-L1 mouse adipocytes; test: Lipolytic activity: glycerol release in differentiated 3T3-L1 mouse adipocytes (12 h); conditions: for Lipolysis Activity measured as Glycerol (μM) release in media: 3T3-L1 mouse adipocytes, 12 h
Procedure: JCRB9014-A) from Tebu-Bio (Tebu-bio, Barcelona, Spain). Briefly, mouse adipocytes (3T3-L1 cells) were cultured in 48 well plates as described previously (Saez-Lopez et al., 2020). Adipocytes were differentiated using cell culture reagents purchased from Tebu-Bio and following the manufacturer's instructions. At day of differentiation cells were treated in duplicates with vehicle (DMSO), Caffeine (100 μg/ml), and each of the peptides at the specified doses in Table 6a below. At the end of the experiment (12 h), supernatants were collected and glycerol content was measured using a Glycerol Assay Kit (Sigma) following manufacturer's instructions.

Cn1c(=O)c2c(ncn2C)n(C)c1=O [Caffeine]
Lipolysis Activity measured as Glycerol (μM) release in media ([1]; 100 μg/ml): 35.53 µM | lipolytic activity at 120' ([2]; 120', 10 μg/ml): neither caffeine nor the comparative peptide, at the same dose, provided any significant activity at that time | Lipolytic activity measured as glycerol release ([2]; 120 min): −3.0856 UM | Lipolytic activity measured as glycerol release ([2]; 240 min): 17.1602 UM | Lipolysis Activity measured as Glycerol (μM) release in media ([3]; 100 μg/ml): 297 µM

Ac-TWDPEGVIFY (Ac-[dT][dW][dD][dP][dE]G[dV][dI][dF][dY]) [GP3D-Ac, N-term CH3CONH, C-term COOH]
Lipolysis Activity measured as Glycerol (μM) release in media ([1]; 25 μg/ml): 16.56 µM | Lipolysis Activity measured as Glycerol (μM) release in media ([1]; 50 μg/ml): 36.41 µM | Lipolysis Activity measured as Glycerol (μM) release in media ([1]; 75 μg/ml): 43.36 µM | Lipolysis Activity measured as Glycerol (μM) release in media ([1]; 100 μg/ml): 58.41 µM | Lipolysis Activity measured as Glycerol (μM) release in media ([3]; 1 μg/ml): 354 µM | Lipolysis Activity measured as Glycerol (μM) release in media ([3]; 10 μg/ml): 388 µM | Lipolysis Activity measured as Glycerol (μM) release in media ([3]; 100 μg/ml): 498 µM

DPEGLFY (H-[dD][dP][dE]G[dL][dF][dY]-OH; SMILES CC(C)C[C@@H](NC(=O)CNC(=O)[C@@H](CCC(=O)O)NC(=O)[C@H]1CCCN1C(=O)[C@H](N)CC(=O)O)C(=O)N[C@H](Cc1ccccc1)C(=O)N[C@H](Cc1ccc(O)cc1)C(=O)O) [GP3D-DM2, N-term NH2, C-term COOH]
Lipolysis Activity measured as Glycerol (μM) release in media ([1]; 25 μg/ml): 15.77 µM | Lipolysis Activity measured as Glycerol (μM) release in media ([1]; 50 μg/ml): 34.83 µM | Lipolysis Activity measured as Glycerol (μM) release in media ([1]; 75 μg/ml): 48.40 µM | Lipolysis Activity measured as Glycerol (μM) release in media ([1]; 100 μg/ml): 52.24 µM | Lipolysis Activity measured as Glycerol (μM) release in media ([3]; 1 μg/ml): 303 µM

DPEGVI (H-[dD][dP][dE]G[dV][dI]-OH; SMILES CC[C@@H](C)[C@@H](NC(=O)[C@H](NC(=O)CNC(=O)[C@@H](CCC(=O)O)NC(=O)[C@H]1CCCN1C(=O)[C@H](N)CC(=O)O)C(C)C)C(=O)O) [GP3D-6 I II IX X, N-term NH2, C-term COOH]
Lipolysis Activity measured as Glycerol (μM) release in media ([1]; 25 μg/ml): 17.01 µM | Lipolysis Activity measured as Glycerol (μM) release in media ([1]; 50 μg/ml): 40.79 µM | Lipolysis Activity measured as Glycerol (μM) release in media ([1]; 75 μg/ml): 43.36 µM | Lipolysis Activity measured as Glycerol (μM) release in media ([1]; 100 μg/ml): 53.13 µM | Lipolysis Activity measured as Glycerol (μM) release in media ([3]; 1 μg/ml): 326 µM | Lipolysis Activity measured as Glycerol (μM) release in media ([3]; 10 μg/ml): 300 µM | Lipolysis Activity measured as Glycerol (μM) release in media ([3]; 100 μg/ml): 368 µM

DPEGVIF (H-[dD][dP][dE]G[dV][dI][dF]-OH; SMILES CC[C@@H](C)[C@@H](NC(=O)[C@H](NC(=O)CNC(=O)[C@@H](CCC(=O)O)NC(=O)[C@H]1CCCN1C(=O)[C@H](N)CC(=O)O)C(C)C)C(=O)N[C@H](Cc1ccccc1)C(=O)O) [GP3D-7 I II X, N-term NH2, C-term COOH]
Lipolysis Activity measured as Glycerol (μM) release in media ([1]; 25 μg/ml): 17.04 µM | Lipolysis Activity measured as Glycerol (μM) release in media ([1]; 50 μg/ml): 34.80 µM | Lipolysis Activity measured as Glycerol (μM) release in media ([1]; 75 μg/ml): 48.09 µM | Lipolysis Activity measured as Glycerol (μM) release in media ([1]; 100 μg/ml): 58.31 µM | Lipolysis Activity measured as Glycerol (μM) release in media ([3]; 1 μg/ml): 391 µM | Lipolysis Activity measured as Glycerol (μM) release in media ([3]; 10 μg/ml): 405 µM | Lipolysis Activity measured as Glycerol (μM) release in media ([3]; 100 μg/ml): 313 µM

DPEGVIY (H-[dD][dP][dE]G[dV][dI][dY]-OH; SMILES CC[C@@H](C)[C@@H](NC(=O)[C@H](NC(=O)CNC(=O)[C@@H](CCC(=O)O)NC(=O)[C@H]1CCCN1C(=O)[C@H](N)CC(=O)O)C(C)C)C(=O)N[C@H](Cc1ccc(O)cc1)C(=O)O) [GP3D-7 I II IX, N-term NH2, C-term COOH]
Lipolysis Activity measured as Glycerol (μM) release in media ([1]; 25 μg/ml): 19.68 µM | Lipolysis Activity measured as Glycerol (μM) release in media ([1]; 50 μg/ml): 34.01 µM | Lipolysis Activity measured as Glycerol (μM) release in media ([1]; 75 μg/ml): 46.62 µM | Lipolysis Activity measured as Glycerol (μM) release in media ([1]; 100 μg/ml): 56.08 µM | Lipolysis Activity measured as Glycerol (μM) release in media ([3]; 1 μg/ml): 417 µM | Lipolysis Activity measured as Glycerol (μM) release in media ([3]; 10 μg/ml): 380 µM | Lipolysis Activity measured as Glycerol (μM) release in media ([3]; 100 μg/ml): 346 µM

NDPEGLY (H-[dN][dD][dP][dE]G[dL][dY]-OH; SMILES CC(C)C[C@@H](NC(=O)CNC(=O)[C@@H](CCC(=O)O)NC(=O)[C@H]1CCCN1C(=O)[C@@H](CC(=O)O)NC(=O)[C@H](N)CC(N)=O)C(=O)N[C@H](Cc1ccc(O)cc1)C(=O)O) [GP3D-DM5, N-term NH2, C-term COOH]
Lipolysis Activity measured as Glycerol (μM) release in media ([1]; 25 μg/ml): 21.84 µM | Lipolysis Activity measured as Glycerol (μM) release in media ([1]; 50 μg/ml): 39.18 µM | Lipolysis Activity measured as Glycerol (μM) release in media ([1]; 75 μg/ml): 47.07 µM | Lipolysis Activity measured as Glycerol (μM) release in media ([1]; 100 μg/ml): 55.12 µM | Lipolysis Activity measured as Glycerol (μM) release in media ([3]; 100 μg/ml): 326 µM

NDPEGVIY (H-[dN][dD][dP][dE]G[dV][dI][dY]-OH; SMILES CC[C@@H](C)[C@@H](NC(=O)[C@H](NC(=O)CNC(=O)[C@@H](CCC(=O)O)NC(=O)[C@H]1CCCN1C(=O)[C@@H](CC(=O)O)NC(=O)[C@H](N)CC(N)=O)C(C)C)C(=O)N[C@H](Cc1ccc(O)cc1)C(=O)O) [GP3D-DM6, N-term NH2, C-term COOH]
Lipolysis Activity measured as Glycerol (μM) release in media ([1]; 25 μg/ml): 19.83 µM | Lipolysis Activity measured as Glycerol (μM) release in media ([1]; 50 μg/ml): 37.09 µM | Lipolysis Activity measured as Glycerol (μM) release in media ([1]; 75 μg/ml): 48.37 µM | Lipolysis Activity measured as Glycerol (μM) release in media ([1]; 100 μg/ml): 55.19 µM | Lipolysis Activity measured as Glycerol (μM) release in media ([3]; 1 μg/ml): 304 µM | Lipolysis Activity measured as Glycerol (μM) release in media ([3]; 100 μg/ml): 405 µM

TWDPEGVIFY [GP3D] ([dT][dW][dD][dP][dE]G[dV][dI][dF][dY]) [N-term NH2, C-term COOH]
Lipolytic activity measured as glycerol release ([2]; 120 min, listed as SEQ ID NO: 3): 24.8964 UM | Lipolytic activity measured as glycerol release ([2]; 240 min, listed as SEQ ID NO: 3): 90.1603 UM | fold more efficient in inducing lipolysis vs caffeine or SEQ ID NO:2 ([2]; time 120', 10 μg/ml): more than 24 fold | fold more efficient in inducing lipolysis vs caffeine or SEQ ID NO:2 ([2]; time 240', 10 μg/ml): more than 5 fold | Lipolysis Activity measured as Glycerol (μM) release in media ([3]; 1 μg/ml): 538 µM | Lipolysis Activity measured as Glycerol (μM) release in media ([3]; 10 μg/ml): 574 µM | Lipolysis Activity measured as Glycerol (μM) release in media ([3]; 100 μg/ml): 580 µM | increase in lipolytic activity compared to the L version ([3]; D-decapeptide vs L version (SEQ ID NO: 2)): about 2 fold

TWDPEGVIFY [GP3L, comparative L-decapeptide; N-term NH2, C-term COOH, reference compound]
Lipolytic activity measured as glycerol release ([2]; 120 min, listed as SEQ ID NO: 2): −0.5343 UM | Lipolytic activity measured as glycerol release ([2]; 240 min, listed as SEQ ID NO: 2): 17.7363 UM | Lipolysis Activity measured as Glycerol (μM) release in media ([3]; 1 μg/ml): 230 µM | Lipolysis Activity measured as Glycerol (μM) release in media ([3]; 10 μg/ml): 250 µM | Lipolysis Activity measured as Glycerol (μM) release in media ([3]; 100 μg/ml): 360 µM

WDPEGLY (H-[dW][dD][dP][dE]G[dL][dY]-OH; SMILES CC(C)C[C@@H](NC(=O)CNC(=O)[C@@H](CCC(=O)O)NC(=O)[C@H]1CCCN1C(=O)[C@@H](CC(=O)O)NC(=O)[C@H](N)Cc1c[nH]c2ccccc12)C(=O)N[C@H](Cc1ccc(O)cc1)C(=O)O) [GP3D-DM1, N-term NH2, C-term COOH]
Lipolysis Activity measured as Glycerol (μM) release in media ([1]; 25 μg/ml): 15.94 µM | Lipolysis Activity measured as Glycerol (μM) release in media ([1]; 50 μg/ml): 32.98 µM | Lipolysis Activity measured as Glycerol (μM) release in media ([1]; 75 μg/ml): 37.78 µM | Lipolysis Activity measured as Glycerol (μM) release in media ([1]; 100 μg/ml): 40.28 µM | Lipolysis Activity measured as Glycerol (μM) release in media ([3]; 1 μg/ml): 356 µM | Lipolysis Activity measured as Glycerol (μM) release in media ([3]; 10 μg/ml): 477 µM | Lipolysis Activity measured as Glycerol (μM) release in media ([3]; 100 μg/ml): 324 µM

WDPEGV (H-[dW][dD][dP][dE]G[dV]-OH; SMILES CC(C)[C@@H](NC(=O)CNC(=O)[C@@H](CCC(=O)O)NC(=O)[C@H]1CCCN1C(=O)[C@@H](CC(=O)O)NC(=O)[C@H](N)Cc1c[nH]c2ccccc12)C(=O)O) [GP3D-6 I VIII IX X, N-term NH2, C-term COOH]
Lipolysis Activity measured as Glycerol (μM) release in media ([1]; 25 μg/ml): 18.07 µM | Lipolysis Activity measured as Glycerol (μM) release in media ([1]; 50 μg/ml): 32.53 µM | Lipolysis Activity measured as Glycerol (μM) release in media ([1]; 75 μg/ml): 47.82 µM | Lipolysis Activity measured as Glycerol (μM) release in media ([1]; 100 μg/ml): 51.90 µM | Lipolysis Activity measured as Glycerol (μM) release in media ([3]; 100 μg/ml): 360 µM

WDPEGVY (H-[dW][dD][dP][dE]G[dV][dY]-OH; SMILES CC(C)[C@@H](NC(=O)CNC(=O)[C@@H](CCC(=O)O)NC(=O)[C@H]1CCCN1C(=O)[C@@H](CC(=O)O)NC(=O)[C@H](N)Cc1c[nH]c2ccccc12)C(=O)N[C@H](Cc1ccc(O)cc1)C(=O)O) [GP3D-7 I VIII IX, N-term NH2, C-term COOH]
Lipolysis Activity measured as Glycerol (μM) release in media ([3]; 10 μg/ml): 314 µM
